Counter-ions that a name gives are not always drawn.
These compounds were tested against T1, HDAC6 (Homo sapiens, UniProt Q9UBN7) (assay: HDAC assay (fluorogenic substrate), HDAC6).
T1 sequence (Q9UBN7 1-1215): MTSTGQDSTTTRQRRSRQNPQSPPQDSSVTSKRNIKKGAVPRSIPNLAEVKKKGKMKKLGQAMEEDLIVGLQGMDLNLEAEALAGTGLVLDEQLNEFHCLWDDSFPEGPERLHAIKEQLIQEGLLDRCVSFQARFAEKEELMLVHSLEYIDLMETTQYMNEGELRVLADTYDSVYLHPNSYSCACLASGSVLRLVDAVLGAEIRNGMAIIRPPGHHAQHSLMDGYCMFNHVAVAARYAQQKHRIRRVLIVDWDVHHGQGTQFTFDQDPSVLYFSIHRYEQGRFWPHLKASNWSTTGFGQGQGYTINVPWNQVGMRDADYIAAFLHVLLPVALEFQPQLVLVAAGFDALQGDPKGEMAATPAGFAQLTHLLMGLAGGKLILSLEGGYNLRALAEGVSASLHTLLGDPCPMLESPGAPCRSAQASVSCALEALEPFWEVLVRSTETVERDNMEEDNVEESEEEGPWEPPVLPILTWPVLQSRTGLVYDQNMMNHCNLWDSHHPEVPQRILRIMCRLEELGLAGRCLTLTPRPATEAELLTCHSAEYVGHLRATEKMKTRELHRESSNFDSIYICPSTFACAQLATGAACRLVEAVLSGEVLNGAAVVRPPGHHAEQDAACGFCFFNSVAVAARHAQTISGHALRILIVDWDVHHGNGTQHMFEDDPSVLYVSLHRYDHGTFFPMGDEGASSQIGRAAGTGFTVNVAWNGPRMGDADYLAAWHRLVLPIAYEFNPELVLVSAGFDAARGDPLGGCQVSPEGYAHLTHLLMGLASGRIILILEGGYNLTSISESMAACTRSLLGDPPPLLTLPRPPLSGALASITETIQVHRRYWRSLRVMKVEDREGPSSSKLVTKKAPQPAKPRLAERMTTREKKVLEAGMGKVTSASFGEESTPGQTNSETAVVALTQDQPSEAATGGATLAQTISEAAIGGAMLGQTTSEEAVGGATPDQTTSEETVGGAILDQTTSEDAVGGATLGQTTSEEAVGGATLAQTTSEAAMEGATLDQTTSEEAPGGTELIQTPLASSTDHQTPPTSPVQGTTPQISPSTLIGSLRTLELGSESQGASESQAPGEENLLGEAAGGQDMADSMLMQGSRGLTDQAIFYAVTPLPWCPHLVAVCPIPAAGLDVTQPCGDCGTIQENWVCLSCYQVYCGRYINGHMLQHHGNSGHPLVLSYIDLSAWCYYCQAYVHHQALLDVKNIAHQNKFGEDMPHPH
Format: biochemical
Procedure: Base Reaction buffer: 50 mM Tris-HCl, pH8.0, 137 mM NaCl, 2.7 mM KCl, and 1 mM MgCl2. Add fresh: 1 mg/ml BSA, 1% DMSO
Fluorogenic HDAC General Substrate: 50 μM, Arg-His-Lys-Lys(Ac)
• 1. Deliver 2× enzyme in wells of reaction plate except No Enzyme control wells. Add buffer in No En wells. • 2. Deliver compounds in 100% DMSO into the enzyme mixture by Acoustic technology (Echo550; nanoliter range). Spin down and pre-incubation. • 3. Deliver 2× Substrate Mixture (Fluorogenic HDAC Substrate and co-factor if applicable) in all reaction wells to initiate the reaction. Spin and shake. • 4. Incubate for 30 min for Class 2A, 1 hr for HDAC1, 2, 3, and 6, and 2 hr for the rest of HDACs and SIRTs at 30° C. with seal. Development Step: • 5. Add Developer with Trichostatin A (or Nicotinamide for SIRTs) to stop the reaction and to generate fluorescent color. • 6. Kinetic measurement for 1.5 hr with Envision with 15 min interval. (Ex/Em=360/460 nm) • 7. Take endpoint reading for analysis after the development reaches plateau.

SMILES | inhibition at 10 µM
FC(F)c1nnc(-c2cnc(Nc3cc(Br)c4nc[nH]c4c3)nc2)o1 [Example 2, 4-bromo-N-(5-(5-(difluoromethyl)-1,3,4-oxadiazol-2-yl)pyrimidin-2-yl)-1H-benzo[d]imidazol-6-amine] | > 90%
FC(F)c1nnc(-c2cnc(Nc3cc(-c4cccnc4)c4nc[nH]c4c3)nc2)o1 [Example 3, N-(5-(5-(difluoromethyl)-1,3,4-oxadiazol-2-yl)pyrimidin-2-yl)-4-(pyridin-3-yl)-1H-benzo[d]imidazol-6-amine hydrochloride] | > 80%
Cn1cnc2c(-c3ccccc3)cc(Nc3ncc(-c4nnc(C(F)F)o4)cn3)cc21 [Example 4, N-(5-(5-(difluoromethyl)-1,3,4-oxadiazol-2-yl)pyrimidin-2-yl)-1-methyl-4-phenyl-1H-benzo[d]imidazol-6-amine] | > 70%
CN(C)c1nc2c(-c3ccccc3)cc(Nc3ncc(-c4nnc(C(F)F)o4)cn3)cc2[nH]1 [Example 6, N6-(5-(5-(difluoromethyl)-1,3,4-oxadiazol-2-yl)pyrimidin-2-yl)-N2,N2-dimethyl-4-phenyl-1H-benzo[d]imidazole-2,6-diamine] | > 80%
CN(C)C(=O)c1cc(Nc2ncc(-c3nnc(C(F)F)o3)cn2)cc2[nH]cnc12 [Example 8, 6-((5-(5-(difluoromethyl)-1,3,4-oxadiazol-2-yl)pyrimidin-2-yl)amino)-N,N-dimethyl-1H-benzo[d]imidazole-4-carboxamide] | > 80%
O=S(=O)(NCCO)c1cc(Nc2ncc(-c3nnc(C(F)F)o3)cn2)cc2[nH]cnc12 [Example 11, 6-((5-(5-(difluoromethyl)-1,3,4-oxadiazol-2-yl)pyrimidin-2-yl)amino)-N-(2-hydroxyethyl)-1H-benzo[d]imidazole-4-sulfonamide] | > 90%
OCC(O)Cn1cnc2c(-c3ccccc3)cc(Nc3ncc(-c4nnc(C(F)F)o4)cn3)cc21 (stereo not drawn) [Example 13, 3-(6-((5-(5-(difluoromethyl)-1,3,4-oxadiazol-2-yl)pyrimidin-2-yl)amino)-4-phenyl-1H-benzo[d]imidazol-1-yl)propane-1,2-diol] | > 90%
OCCn1cnc2c(-c3ccccc3)cc(Nc3ncc(-c4nnc(C(F)F)o4)cn3)cc21 [Example 14, 2-(6-((5-(5-(difluoromethyl)-1,3,4-oxadiazol-2-yl)pyrimidin-2-yl)amino)-4-phenyl-1H-benzo[d]imidazol-1-yl)ethan-1-ol] | > 90%
OC1CCN(CCn2cnc3c(-c4ccccc4)cc(Nc4ncc(-c5nnc(C(F)F)o5)cn4)cc32)C1 (stereo not drawn) [Example 16, 1-(2-(6-((5-(5-(difluoromethyl)-1,3,4-oxadiazol-2-yl)pyrimidin-2-yl)amino)-4-phenyl-1H-benzo[d]imidazol-1-yl)ethyl)pyrrolidin-3-ol] | > 90%
FC(F)c1nnc(-c2cnc(Nc3cc(-c4ccc(N5CCOCC5)cc4)c4nc[nH]c4c3)nc2)o1 [Example 17, N-(5-(5-(difluoromethyl)-1,3,4-oxadiazol-2-yl)pyrimidin-2-yl)-4-(4-morpholinophenyl)-1H-benzo[d]imidazol-6-amine] | > 90%
FC(F)c1nnc(-c2cnc(Nc3cc(-c4ccc(CN5CCOCC5)cc4)c4nc[nH]c4c3)nc2)o1 [Example 18, N-(5-(5-(difluoromethyl)-1,3,4-oxadiazol-2-yl)pyrimidin-2-yl)-4-(4-(morpholinomethyl)phenyl)-1H-benzo[d]imidazol-6-amine] | > 90%
FC(F)c1nnc(-c2cnc(Nc3ccc4nc[nH]c4c3)nc2)o1 [Example 19, N-(5-(5-(difluoromethyl)-1,3,4-oxadiazol-2-yl)pyrimidin-2-yl)-1H-benzo[d]imidazol-6-amine] | > 90%
Fc1cnc(-c2cc(Nc3ncc(-c4nnc(C(F)F)o4)cn3)cc3[nH]cnc23)c(F)c1 [Example 22, N-(5-(5-(difluoromethyl)-1,3,4-oxadiazol-2-yl)pyrimidin-2-yl)-4-(3,5-difluoropyridin-2-yl)-1H-benzo[d]imidazol-6-amine] | > 90%
FC(F)c1nnc(-c2cnc(Nc3cc(C(F)(F)F)c4nc[nH]c4c3)nc2)o1 [Example 23, N-(5-(5-(difluoromethyl)-1,3,4-oxadiazol-2-yl)pyrimidin-2-yl)-4-(trifluoromethyl)-1H-benzo[d]imidazol-6-amine] | > 90%

Continued, values first:

inhibition at 10 µM | SMILES
> 90% | Cc1nc2c(-c3ccccc3)cc(Nc3ncc(-c4nnc(C(F)F)o4)cn3)cc2[nH]1 [Example 5, N-(5-(5-(difluoromethyl)-1,3,4-oxadiazol-2-yl)pyrimidin-2-yl)-2-methyl-4-phenyl-1H-benzo[d]imidazol-6-amine]
> 40% | CN(c1cc(-c2ccccc2)c2nc[nH]c2c1)c1ncc(-c2nnc(C(F)F)o2)cn1 [Example 7, N-(5-(5-(difluoromethyl)-1,3,4-oxadiazol-2-yl)pyrimidin-2-yl)-N-methyl-4-phenyl-1H-benzo[d]imidazol-6-amine]
> 90% | Fc1ccc(-c2cc(Nc3ncc(-c4nnc(C(F)F)o4)cn3)cc3[nH]cnc23)c(F)c1 [Example 9, N-(5-(5-(difluoromethyl)-1,3,4-oxadiazol-2-yl)pyrimidin-2-yl)-4-(2,4-difluorophenyl)-1H-benzo[d]imidazol-6-amine]
> 90% | FC(F)c1nnc(-c2cnc(Nc3cc(-c4ccccn4)c4nc[nH]c4c3)nc2)o1 [Example 10, N-(5-(5-(difluoromethyl)-1,3,4-oxadiazol-2-yl)pyrimidin-2-yl)-4-(pyridin-2-yl)-1H-benzo[d]imidazol-6-amine]
> 90% | C=CCn1cnc2c(-c3ccccc3)cc(Nc3ncc(-c4nnc(C(F)F)o4)cn3)cc21 [Example 12, 1-allyl-N-(5-(5-(difluoromethyl)-1,3,4-oxadiazol-2-yl)pyrimidin-2-yl)-4-phenyl-1H-benzo[d]imidazol-6-amine]
> 90% | CN(C)CCn1cnc2c(-c3ccccc3)cc(Nc3ncc(-c4nnc(C(F)F)o4)cn3)cc21 [Example 15, N-(5-(5-(difluoromethyl)-1,3,4-oxadiazol-2-yl)pyrimidin-2-yl)-1-(2-(dimethylamino)ethyl)-4-phenyl-1H-benzo[d]imidazol-6-amine]
> 90% | FC(F)c1nnc(-c2cnc(NCc3cc(-c4ccccc4)c4nc[nH]c4c3)nc2)o1 [Example 20, 5-(5-(difluoromethyl)-1,3,4-oxadiazol-2-yl)-N-((4-phenyl-1H-benzo[d]imidazol-6-yl)methyl)pyrimidin-2-amine]
> 90% | OCCn1cnc2c(-c3ccccn3)cc(Nc3ncc(-c4nnc(C(F)F)o4)cn3)cc21 [Example 21, 2-(6-((5-(5-(difluoromethyl)-1,3,4-oxadiazol-2-yl)pyrimidin-2-yl)amino)-4-(pyridin-2-yl)-1H-benzo[d]imidazol-1-yl)ethan-1-ol]
> 90% | OCCn1cnc2cc(Nc3ncc(-c4nnc(C(F)F)o4)cn3)cc(-c3ccccc3)c21 [Example 24, 2-(5-((5-(5-(difluoromethyl)-1,3,4-oxadiazol-2-yl)pyrimidin-2-yl)amino)-7-phenyl-1H-benzo[d]imidazol-1-yl)ethan-1-ol]
> 90% | CN(C)C(=O)Cn1cnc2c(-c3ccccc3)cc(Nc3ncc(-c4nnc(C(F)F)o4)cn3)cc21 [Example 25, 2-(6-((5-(5-(difluoromethyl)-1,3,4-oxadiazol-2-yl)pyrimidin-2-yl)amino)-4-phenyl-1H-benzo[d]imidazol-1-yl)-N,N-dimethylacetamide]

From US11339150B2, “Benzimidazole compounds as HDAC6 inhibitors” (OnKure, Inc., priority 2019, dated 2022)
